Measured values reported in ChEMBL document CHEMBL1201862, “PubChem BioAssay data set” (2004).
Active and inactive are the calls of the source.

Columns and labels:
[1] = microbe, parasite or virus in culture; assay type: functional; details: Mycobacterium tuberculosis
[2] = target: Melanocortin receptor 4 (Homo sapiens, UniProt P32245); assay type: functional, cell-based;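 note: Cell-based assay with luminescence read-out, confirmatory dose-response testing for agonist activity of biased ligands at MC4R; human U2OS cells with tagged receptor and beta-arrestin; potency of agonists that increase receptor coupling to beta-arrestin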
[3] = target: Protein Wnt-3a (Mus musculus, UniProt P27467); assay: Wnt3a-driven reporter signaling inhibition, dose response, selectivity assay for Gli-SUFU antagonist project, Wnt-LIGHT cells, luminescence (AID 651570); assay type: functional; details: read-out: IC50_Mean;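 note: Wnt-LIGHT reporter cells stimulated with conditioned medium from Wnt3a-producing cells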
[4] = target: T1, Carboxy-terminal domain RNA polymerase II polypeptide A small phosphatase 1 (Homo sapiens, UniProt Q9GZU7); assay: inhibitors of CTDSP1, concentration-response testing, biochemical assay, absorbance-based, actives from ultra-high-throughput screening (AID 540297); assay type: functional
T1 sequence (Q9GZU7 whole entry): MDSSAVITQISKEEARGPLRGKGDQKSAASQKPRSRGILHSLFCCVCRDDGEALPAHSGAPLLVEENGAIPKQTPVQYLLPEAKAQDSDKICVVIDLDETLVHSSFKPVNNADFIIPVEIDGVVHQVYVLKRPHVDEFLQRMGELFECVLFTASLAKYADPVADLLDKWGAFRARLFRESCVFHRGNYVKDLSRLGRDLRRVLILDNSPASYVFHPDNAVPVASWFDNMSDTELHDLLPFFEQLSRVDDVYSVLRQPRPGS

[5] = target: Cytochrome P450 2C19 (Homo sapiens, UniProt P33261); assay: Cytochrome panel assay with activity outcomes. Panel member name: p450-cyp2c19 Compounds with AC50 equal or less than 10 uM are considered active; assay type: functional; details: read-out: AC50
[6] = target: T2, Low molecular weight phosphotyrosine protein phosphatase (Homo sapiens, UniProt P24666); assay type: functional; details: read-out: IC50_Mean
T2 sequence (P24666 whole entry): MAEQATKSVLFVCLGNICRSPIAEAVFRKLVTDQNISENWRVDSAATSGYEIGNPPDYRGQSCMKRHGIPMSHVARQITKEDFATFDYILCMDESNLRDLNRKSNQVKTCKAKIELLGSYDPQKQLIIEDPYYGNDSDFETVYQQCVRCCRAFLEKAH

[7] = target: T2, Low molecular weight phosphotyrosine protein phosphatase; assay type: functional; details: read-out: IC50_Mean; remark: listed apart in the source
[8] = target: T3, Tyrosine-protein phosphatase non-receptor type 22 (Homo sapiens, UniProt Q9Y2R2); assay: LYP phosphatase inhibition for selectivity, dose response, selectivity assay for LMPTP inhibitor project, biochemical, fluorescence, LYP catalytic domain (AID 652006); assay type: functional; details: read-out: IC50_Mean
T3 sequence (Q9Y2R2 whole entry): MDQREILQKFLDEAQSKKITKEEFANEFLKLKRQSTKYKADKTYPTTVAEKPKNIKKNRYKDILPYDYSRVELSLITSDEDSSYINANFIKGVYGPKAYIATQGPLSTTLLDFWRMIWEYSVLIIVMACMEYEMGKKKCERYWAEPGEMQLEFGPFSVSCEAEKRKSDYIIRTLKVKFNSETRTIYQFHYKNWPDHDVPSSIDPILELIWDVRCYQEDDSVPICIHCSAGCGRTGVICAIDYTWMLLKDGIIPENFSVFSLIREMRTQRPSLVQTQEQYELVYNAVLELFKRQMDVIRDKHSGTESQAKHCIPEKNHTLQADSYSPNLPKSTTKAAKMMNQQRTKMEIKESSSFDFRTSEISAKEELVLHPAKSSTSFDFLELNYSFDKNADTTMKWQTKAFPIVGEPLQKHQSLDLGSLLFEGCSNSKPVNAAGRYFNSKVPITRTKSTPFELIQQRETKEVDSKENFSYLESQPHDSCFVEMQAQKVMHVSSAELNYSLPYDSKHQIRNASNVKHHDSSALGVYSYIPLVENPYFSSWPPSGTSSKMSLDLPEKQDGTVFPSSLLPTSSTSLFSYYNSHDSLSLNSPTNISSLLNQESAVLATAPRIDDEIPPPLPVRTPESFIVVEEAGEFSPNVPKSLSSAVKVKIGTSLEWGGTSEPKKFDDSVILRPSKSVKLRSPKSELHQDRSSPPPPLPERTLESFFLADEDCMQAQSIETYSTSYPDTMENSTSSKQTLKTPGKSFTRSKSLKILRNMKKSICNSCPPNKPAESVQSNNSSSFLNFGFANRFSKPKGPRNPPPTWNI

[9] = target: Cytochrome P450 2C9 (Homo sapiens, UniProt P11712)
[10] = target: 26S proteasome non-ATPase regulatory subunit 14 (Homo sapiens, UniProt O00487); assay: inhibition of proteasome subunit RPN11 – biochemical, fluorescence polarization, uHTS hits, confirmation (AID 602368); assay type: functional
[11] = system: Streptococcus sp. 'group A'; assay: growth inhibition of control SK(-) GAS strain, dose response, counter-screen for streptokinase expression inhibitor project, luminescence, kanamycin, BacTiterGlo, confirmation (AID 1900); assay type: functional, organism-based
[12] = target: Prothrombin (Bos taurus, UniProt P00735); assay: thrombin inhibition, dose response, biochemical, fluorescence polarization, uHTS hits (AID 602369); assay type: functional
[13] = system: Streptococcus; assay: Group A Streptococcus viability loss, dose response, counter-screen for streptokinase expression inhibitor project, luminescence, BacTiterGlo (AID 1915); assay type: functional, organism-based;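 note: potency for reduction of bacterial viability or growth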
[14] = target: 72 kDa type IV collagenase (Homo sapiens, UniProt P08253); assay: Dose Response validation of uHTS RPN11 inhibitor hits using a MMP-2 Fluorescence assay.; assay type: functional
[15] = target: Potassium voltage-gated channel subfamily KQT member 2 (Rattus norvegicus, UniProt O88943); assay: KCNQ2 potassium channel inhibitors, dose response, cell-based, automated electrophysiology, set II, rat KCNQ2 (AID 588637); assay type: functional
[16] = target: Ras and Rab interactor 1/Tyrosine-protein kinase ABL1 (Homo sapiens, UniProt P00519+Q13671); assay type: functional;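 note: biochemical TR-FRET dose-response test measuring inhibition of binding between Rin1 and Abl proteins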
[17] = target: T4, DNA dC->dU-editing enzyme APOBEC-3A (Homo sapiens, UniProt P31941); assay: SAR analysis of small molecule inhibitors of APOBEC3A DNA Deaminase via a fluorescence-based single-stranded DNA deaminase assay - Set 2.; assay type: functional; details: read-out: IC50_Mean
[18] = target: T5, DNA dC->dU-editing enzyme APOBEC-3G (Homo sapiens, UniProt Q9HC16); assay type: functional
[19] = target: T4, DNA dC->dU-editing enzyme APOBEC-3A; assay: Dose Response confirmation of small molecule APOBEC3A DNA Deaminase Inhibitors via a fluorescence-based single-stranded DNA deaminase assay. [Related pubchem assays (depositor defined):AID493011, AID493024]; assay type: functional
[20] = target: T5, DNA dC->dU-editing enzyme APOBEC-3G; assay: SAR analysis of small molecule inhibitors of APOBEC3G DNA Deaminase via a fluorescence-based single-stranded DNA deaminase assay - Set 2.; assay type: functional; details: read-out: IC50_Mean
[21] = target: T4, DNA dC->dU-editing enzyme APOBEC-3A; assay: SAR analysis of small molecule inhibitors of APOBEC3A DNA Deaminase via a fluorescence-based single-stranded DNA deaminase assay.; assay type: functional; details: read-out: IC50_Mean
[22] = target: T5, DNA dC->dU-editing enzyme APOBEC-3G; assay: APOBEC3G deaminase inhibitors, SAR follow-up, biochemical, fluorescence, single-stranded DNA substrate (AID 602136); assay type: functional; details: read-out: IC50_Mean

T5 sequence (Q9HC16 whole entry): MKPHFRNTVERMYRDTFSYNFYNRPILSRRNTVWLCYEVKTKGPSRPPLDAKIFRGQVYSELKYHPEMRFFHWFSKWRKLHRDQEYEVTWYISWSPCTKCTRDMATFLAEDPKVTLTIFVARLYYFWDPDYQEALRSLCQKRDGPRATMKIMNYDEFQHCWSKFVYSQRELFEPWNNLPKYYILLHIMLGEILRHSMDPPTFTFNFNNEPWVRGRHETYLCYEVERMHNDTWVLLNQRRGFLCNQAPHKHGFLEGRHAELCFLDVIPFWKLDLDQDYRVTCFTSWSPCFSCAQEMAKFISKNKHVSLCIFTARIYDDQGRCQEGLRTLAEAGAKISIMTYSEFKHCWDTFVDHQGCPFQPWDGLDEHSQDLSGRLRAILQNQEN
T4 sequence (P31941 whole entry): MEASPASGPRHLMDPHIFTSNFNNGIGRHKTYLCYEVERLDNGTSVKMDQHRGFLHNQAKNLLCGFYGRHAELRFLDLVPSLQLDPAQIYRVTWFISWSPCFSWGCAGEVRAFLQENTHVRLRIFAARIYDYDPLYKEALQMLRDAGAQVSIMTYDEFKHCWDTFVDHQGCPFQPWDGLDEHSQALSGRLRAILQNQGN
Sequence of Potassium voltage-gated channel subfamily KQT member 2 (O88943 whole entry): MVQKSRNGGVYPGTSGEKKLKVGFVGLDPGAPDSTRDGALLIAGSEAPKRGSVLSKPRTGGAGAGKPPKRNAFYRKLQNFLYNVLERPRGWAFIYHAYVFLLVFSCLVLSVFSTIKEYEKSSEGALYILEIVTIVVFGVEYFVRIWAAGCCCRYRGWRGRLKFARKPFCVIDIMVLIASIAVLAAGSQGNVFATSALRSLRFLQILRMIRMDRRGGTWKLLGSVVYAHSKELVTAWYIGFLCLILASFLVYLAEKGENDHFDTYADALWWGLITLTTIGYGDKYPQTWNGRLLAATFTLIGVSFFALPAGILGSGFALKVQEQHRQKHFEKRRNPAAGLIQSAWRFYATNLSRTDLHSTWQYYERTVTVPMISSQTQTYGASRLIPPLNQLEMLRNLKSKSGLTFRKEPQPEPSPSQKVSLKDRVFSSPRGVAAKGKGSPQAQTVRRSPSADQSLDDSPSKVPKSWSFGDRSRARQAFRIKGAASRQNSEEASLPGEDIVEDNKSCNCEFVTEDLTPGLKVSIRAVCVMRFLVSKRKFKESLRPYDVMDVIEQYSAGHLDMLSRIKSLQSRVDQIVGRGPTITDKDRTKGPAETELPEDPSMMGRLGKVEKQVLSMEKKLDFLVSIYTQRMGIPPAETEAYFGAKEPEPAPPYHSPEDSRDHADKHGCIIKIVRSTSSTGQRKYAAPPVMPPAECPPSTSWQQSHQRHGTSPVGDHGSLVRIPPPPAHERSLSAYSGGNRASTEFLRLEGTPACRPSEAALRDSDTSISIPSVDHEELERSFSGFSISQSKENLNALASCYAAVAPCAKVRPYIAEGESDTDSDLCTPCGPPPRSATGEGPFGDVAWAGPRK
Sequence of Ras and Rab interactor 1/Tyrosine-protein kinase ABL1 (P00519 whole entry): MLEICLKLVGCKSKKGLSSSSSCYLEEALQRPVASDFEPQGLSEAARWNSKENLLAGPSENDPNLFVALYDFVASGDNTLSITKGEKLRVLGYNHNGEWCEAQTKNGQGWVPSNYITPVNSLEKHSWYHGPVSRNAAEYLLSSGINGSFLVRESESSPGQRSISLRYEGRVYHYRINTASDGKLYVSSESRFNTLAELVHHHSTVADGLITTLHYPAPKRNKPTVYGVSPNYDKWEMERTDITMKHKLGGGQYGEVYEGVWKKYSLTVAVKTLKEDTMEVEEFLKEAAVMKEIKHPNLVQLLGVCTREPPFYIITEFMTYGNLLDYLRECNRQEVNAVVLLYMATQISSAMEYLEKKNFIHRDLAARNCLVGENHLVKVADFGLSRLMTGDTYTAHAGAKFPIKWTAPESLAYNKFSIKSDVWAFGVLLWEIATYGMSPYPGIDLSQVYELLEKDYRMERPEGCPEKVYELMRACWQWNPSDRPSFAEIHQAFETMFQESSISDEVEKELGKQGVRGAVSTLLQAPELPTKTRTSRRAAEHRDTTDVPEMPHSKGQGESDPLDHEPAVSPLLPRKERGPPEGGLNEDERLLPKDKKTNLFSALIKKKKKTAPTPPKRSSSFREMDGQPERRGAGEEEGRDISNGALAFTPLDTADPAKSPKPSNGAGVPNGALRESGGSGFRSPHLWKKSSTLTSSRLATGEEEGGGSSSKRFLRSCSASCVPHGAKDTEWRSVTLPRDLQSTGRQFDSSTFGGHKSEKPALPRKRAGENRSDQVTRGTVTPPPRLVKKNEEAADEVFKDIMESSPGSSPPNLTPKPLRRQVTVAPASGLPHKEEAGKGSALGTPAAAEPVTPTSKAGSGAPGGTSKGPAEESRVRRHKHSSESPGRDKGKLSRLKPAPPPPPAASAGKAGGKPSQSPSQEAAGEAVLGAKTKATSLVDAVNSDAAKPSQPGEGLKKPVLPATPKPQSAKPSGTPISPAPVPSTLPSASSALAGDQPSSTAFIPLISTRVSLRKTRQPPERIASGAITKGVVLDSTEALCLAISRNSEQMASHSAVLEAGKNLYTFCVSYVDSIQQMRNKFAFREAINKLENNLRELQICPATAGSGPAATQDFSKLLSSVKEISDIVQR
Sequence of Ras and Rab interactor 1/Tyrosine-protein kinase ABL1 (Q13671 whole entry): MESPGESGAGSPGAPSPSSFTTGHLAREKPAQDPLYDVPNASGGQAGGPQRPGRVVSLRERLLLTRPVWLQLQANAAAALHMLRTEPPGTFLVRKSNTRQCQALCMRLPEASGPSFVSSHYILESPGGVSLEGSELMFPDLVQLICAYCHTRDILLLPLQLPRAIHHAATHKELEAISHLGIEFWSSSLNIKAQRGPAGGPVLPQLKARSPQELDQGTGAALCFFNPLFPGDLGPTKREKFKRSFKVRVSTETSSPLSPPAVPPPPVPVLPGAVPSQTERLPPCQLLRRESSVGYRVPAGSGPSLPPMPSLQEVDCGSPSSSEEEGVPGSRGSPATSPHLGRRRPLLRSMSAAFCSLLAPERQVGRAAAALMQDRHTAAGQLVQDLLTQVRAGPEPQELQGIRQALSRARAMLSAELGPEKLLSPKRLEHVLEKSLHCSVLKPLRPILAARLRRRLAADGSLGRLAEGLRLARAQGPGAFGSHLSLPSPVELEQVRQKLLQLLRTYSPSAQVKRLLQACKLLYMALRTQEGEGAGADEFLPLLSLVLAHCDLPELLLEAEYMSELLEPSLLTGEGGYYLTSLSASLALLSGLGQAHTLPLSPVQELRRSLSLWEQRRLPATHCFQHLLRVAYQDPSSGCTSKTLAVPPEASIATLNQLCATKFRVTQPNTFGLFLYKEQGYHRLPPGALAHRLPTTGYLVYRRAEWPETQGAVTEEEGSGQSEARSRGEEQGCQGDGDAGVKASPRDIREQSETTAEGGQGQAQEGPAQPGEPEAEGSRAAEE
Sequence of Protein Wnt-3a (P27467 whole entry, the tested form may be a part): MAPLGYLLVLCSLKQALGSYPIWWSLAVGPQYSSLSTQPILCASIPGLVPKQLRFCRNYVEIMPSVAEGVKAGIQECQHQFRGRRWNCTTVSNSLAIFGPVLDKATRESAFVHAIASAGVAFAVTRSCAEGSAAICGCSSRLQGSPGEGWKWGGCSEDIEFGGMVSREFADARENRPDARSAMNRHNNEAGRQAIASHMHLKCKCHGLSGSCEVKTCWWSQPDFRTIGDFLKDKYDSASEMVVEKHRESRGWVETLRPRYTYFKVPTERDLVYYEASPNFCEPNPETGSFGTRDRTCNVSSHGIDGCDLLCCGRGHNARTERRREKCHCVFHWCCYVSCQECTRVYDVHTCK
Sequence of 26S proteasome non-ATPase regulatory subunit 14 (O00487 whole entry): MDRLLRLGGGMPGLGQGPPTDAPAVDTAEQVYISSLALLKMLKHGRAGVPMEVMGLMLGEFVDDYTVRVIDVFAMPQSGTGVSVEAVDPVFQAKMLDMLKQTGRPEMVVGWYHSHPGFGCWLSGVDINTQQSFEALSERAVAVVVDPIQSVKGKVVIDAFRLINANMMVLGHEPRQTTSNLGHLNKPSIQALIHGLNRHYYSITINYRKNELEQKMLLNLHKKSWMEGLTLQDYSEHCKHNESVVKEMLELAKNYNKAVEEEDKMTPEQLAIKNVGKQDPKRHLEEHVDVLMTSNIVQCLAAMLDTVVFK
Sequence of 72 kDa type IV collagenase (P08253 whole entry): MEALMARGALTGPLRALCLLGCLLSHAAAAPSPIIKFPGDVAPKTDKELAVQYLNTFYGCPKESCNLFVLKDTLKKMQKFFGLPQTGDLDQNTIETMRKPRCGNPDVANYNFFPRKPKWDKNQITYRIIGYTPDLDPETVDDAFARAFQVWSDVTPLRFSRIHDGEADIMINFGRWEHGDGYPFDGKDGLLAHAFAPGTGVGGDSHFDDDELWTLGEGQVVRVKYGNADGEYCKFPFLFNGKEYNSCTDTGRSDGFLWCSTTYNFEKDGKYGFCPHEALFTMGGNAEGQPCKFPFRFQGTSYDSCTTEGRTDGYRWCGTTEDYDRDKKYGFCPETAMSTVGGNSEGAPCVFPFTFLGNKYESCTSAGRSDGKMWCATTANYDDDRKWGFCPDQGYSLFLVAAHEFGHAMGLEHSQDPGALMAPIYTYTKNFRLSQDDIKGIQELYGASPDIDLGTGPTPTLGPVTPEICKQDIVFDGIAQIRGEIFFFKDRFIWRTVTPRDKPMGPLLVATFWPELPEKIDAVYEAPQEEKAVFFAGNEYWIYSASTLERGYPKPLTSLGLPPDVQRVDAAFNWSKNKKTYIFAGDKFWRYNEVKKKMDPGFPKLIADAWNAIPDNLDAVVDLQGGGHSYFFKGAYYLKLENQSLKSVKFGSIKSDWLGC
Sequence of Melanocortin receptor 4 (P32245 whole entry): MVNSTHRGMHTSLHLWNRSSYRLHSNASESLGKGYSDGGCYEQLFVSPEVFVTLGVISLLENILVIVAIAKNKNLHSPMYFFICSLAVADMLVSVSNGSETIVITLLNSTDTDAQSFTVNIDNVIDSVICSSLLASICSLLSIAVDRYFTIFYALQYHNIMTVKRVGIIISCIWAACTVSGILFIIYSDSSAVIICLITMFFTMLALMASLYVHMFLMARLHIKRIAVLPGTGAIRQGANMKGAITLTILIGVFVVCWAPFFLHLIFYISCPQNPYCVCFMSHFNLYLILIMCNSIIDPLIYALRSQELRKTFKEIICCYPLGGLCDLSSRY

Q: With COC(=O)c1c(NC(=O)CC2SC(N)=NC2=O)sc2c1CCC(C(C)(C)C)C2 (configuration not stated) as the molecule, how does the CC50 [1] read?
A: The CC50 was > 40 µM (active).

Q: What about the EC50 [2] of the same molecule?
A: Its EC50 is > 89.2 µM (inactive).

Q: For COc1ccc(NS(=O)(=O)c2ccc(N3CCN(CCO)CC3)c([N+](=O)[O-])c2)cc1, which IC50 [3] is on record?
A: Its IC50 is 0.83 µM (active).

Q: Which results are given for O=C(NNC(=O)c1cc2cc3ccccc3nc2s1)c1cccc(Cl)c1?
A: IC50 [4]: 1.9 µM (active); AC50 [5]: 5.01 µM (inconclusive); IC50 [6]: 10.7 µM (active); IC50 [7]: 8.67 µM (active); IC50 [8]: 26.8 µM (inactive); AC50 [9]: 1.41 µM (inconclusive)

Q: For CC(C)c1ccc(N2C(=O)/C(=C/NNC(=O)c3ccccc3O)C(=O)NC2=S)cc1, which IC50 [10] is on record?
A: Its IC50 is 52.9 µM (active).

Q: And the EC50 [11]?
A: Its EC50 is 7.63 µM (active).

Q: And the IC50 [12]?
A: Its IC50 is 48.4 µM (active).

Q: What about the EC50 [13] of the same molecule?
A: Its EC50 is 7.21 µM (active).

Q: And the IC50 [14]?
A: Its IC50 is 45.2 µM (active).

Q: For O=C(CSc1nc2ccccc2c(=O)n1NC(=O)c1ccccc1)c1ccccc1, which IC50 [15] is on record?
A: Its IC50 is 0.513 µM (active).

Q: For Cn1c(=O)[nH]c(=O)c2c1nc(NCc1ccco1)n2Cc1ccccc1Cl, which IC50 [16] is on record?
A: Its IC50 is > 73.4 µM (inactive).

Q: Which IC50 [17] does the source give for CC(C)(C)NC(=O)CSc1nc2ccc(NC(=O)CSc3nnc(N)s3)cc2s1 here?
A: Its IC50 is > 99 µM (inactive).

Q: And the IC50 [18]?
A: Its IC50 is 18.4 µM (active).

Q: And the IC50 [19]?
A: Its IC50 is 3.87 µM (active).

Q: What about the IC50 [20] of the same molecule?
A: The IC50 was 1.54 µM (active).

Q: What about the IC50 [21] of the same molecule?
A: Its IC50 is 17.1 µM (inactive).

Q: And the IC50 [22]?
A: Its IC50 is 6.68 µM (active).
